Data as given in patent US20170254803A1, “METHOD FOR THE DETECTION OF ANTIGEN PRESENTATION” (Deutsches Krebsforschungszentrum Stiftung des öffentlichen …, priority 2014, published 2017).
Ends that are not written are not given here.

Columns and labels:
[1] = tested on: anti-IDH1R132H antibody (H09); experiment: IDH1R132H and IDH1 wildtype peptide coated ELISA; format: binding, mouse; settings: 10 μg peptide per well; H09 1:1000; OD at 450 nm (FIG. 1C)
Procedure: ELISA plates (Costar) were coated with IDH1R132H and IDH1wt p118-132, p120-134, p122-136, p124-138, p126-140, p128-142, p130-144, p132-146, p123-142 (10 μg per well in PBS), washed with PBS 0.05% Tween 20, and blocked with 3% FBS in PBS 0.05% Tween 20. As negative controls, MOG p35-55 was used at equal concentrations and peptide diluent PBS 10% DMSO was used at equal volume. As primary antibody monoclonal mouse anti-IDH1R132H (1:1000, H09, Dianova) was used. HRP-conjugated secondary antibody was sheep anti-mouse IgG (1:5000, Amersham). HLA-DRB1*01:01 MHC class II tetramer bound to IDH1R132H p123-142 and HLA-DRB1*01:01 MHC class II tetramer control tetramer bound to CLIP were kindly provided by NIH tetramer core facility and used 1:200 during pre-incubation with H09 for competitive ELISA. Substrate was TMB (ebioscience) and reaction was stopped with 1M H2SO4. OD at 450 nm was measured with an ELISA reader (Thermo Fisher).

[2] = target: HLA-DR in patients' glioma tissue; experiment: cell-based or functional assay

Substance | binding of anti-IDH1R132H antibody to coated peptide [1] | positivity in the IDH1R132H-MHC class II PLA system (glioma tissue, positivity set to 20 PLA signals per high power field) (of 9 IDH1R132H+ gliomas) [2]
GWVKPIIIGHHAYGDQYRAT (listed as Homo sapiens) [p123-p142] | binds | 
IDH1R132H (endogenous, in human glioma tissue) (from UniProt O75874 2-414) |  | 5
KPIIIGHHAYGDQYR [KPIIIGHHAYGDQYR] | binds | 
SGWVKPIIIGHHAYG [SGWVKPIIIGHHAYG] | binds | 
WVKPIIIGHHAYGDQ [WVKPIIIGHHAYGDQ] | binds | 
